These results are taken from US20260108545A1, “Methods of treating fibromyalgia with compositions comprising psilocybin” (Tryp Therapeutics Inc., priority 2022, published 2026).

The conditions of data set [1]: cited from earlier work.
For data set [2] the following is noted: rats, cited from earlier work.
For data set [3] the following is noted: across species tested; cited from earlier work.
The test system of data set [4] is rat model of formalin (FML)-induced chronic pain. Briefly: Von Frey assay (VFA), mechanical allodynia, formalin-induced rat pain model. Type of data set: in vivo, Sprague Dawley rats. From the text:
This example describes the effects of intravenous administration of psychedelics on pain perception and diseases associated with pain, such as nociplastic pain, in an animal model of pain. A rat model of formalin (FML)-induced chronic pain was used to investigate the effect of psilocybin administration on mechanical allodynia and thermal hyperalgesia.
Chronic pain in rats was induced by injection of formalin into the hind paw. The rats subsequently were intravenously administered psilocybin, and assessed for changes in pain perception over an extended period of time. […] The pain perception was measured in the contralateral and ipsilateral paws to assess the potential benefit of psychedelics (e.g., psilocybin) in nociplastic pain disorders. […]
Adult male Sprague Dawley rats (300-350 g) were implanted with a catheter in the jugular vein for delivery of 10 mg/kg psilocybin or 0.9% saline. Mechanical allodynia was assessed using von Frey assay (VFA) and was expressed as the threshold in grams (g). Thermal hyperalgesia was measured as paw withdrawal latency in seconds (s) using the hot plate assay (HPA) (52.5° C.). After post-surgical recovery (7-10 days), baseline responses to mechanical and thermal stimuli were measured. […] Two hours after the formalin injection, paw withdrawal thresholds in response to mechanical and thermal stimuli were measured. […]
Two types of pain perception were measured. […]

For data set [5] the following is noted: cited from earlier work. The source holds these as a separate data set.
Setting [6] is: single oral administration of psilocybin at 0.225 mg/kg (Hasler et al.).

Some results are limits rather than exact numbers.

As to `CN(C)CCc1c[nH]c2cccc(O)c12` [psilocin], the “time until psilocin is detectable in plasma” value in data set [1] (after administration of the parent compound (oral psilocybin)) is at most 20 min. Further, in data set [1] (estimate (Hasler et al.)), the “absolute bioavailability of psilocin after oral administration of psilocybin” value is listed as 52.7+/−20%. Also, the “half-life of psilocin in blood” value in data set [1] (in vivo) is 2 to 3 h. In data set [1] (setting [6]), the “average peak concentration of psilocin in plasma” value is listed as 8.2+/−2.8 ng psilocin/ml plasma and the “time of peak plasma levels of psilocin” value was 105 ± 37 min. The “share of total psilocin absorbed from the digestive tract” value in data set [2] (oral psilocybin (Kalberer et al.)) was “approximately 50%”. Besides, the “time to maximum plasma levels” value in data set [2] (post-administration (Chen et al.)) is reported as “approximately 90 minutes”. For the same compound, the “brain regions with the highest levels of psilocin” value in data set [3] is “neocortex, hippocampus, and thalamus”.

`CN(C)CCc1c[nH]c2cccc(OP(=O)(O)O)c12` [psilocybin, 3-[2-(dimethylamino)ethyl]-1H-indol-4-yl]dihydrogen phosphate]: the “duration of statistically significant increase in withdrawal threshold” value in data set [4] (contralateral paw, after a single psilocybin administration) came out at 3 weeks. The “duration of decreased tactile pain” value in data set [4] (rat model of pain) is listed as “up to 28 days”. For the same compound, the “bioavailability of oral psilocybin” value in data set [1] (oral) is listed as about 50%. The tolerability entry in data set [5] (at the doses examined in clinical studies / healthy individuals) is on record as “well tolerated”. Further, the “rates of prolonged psychiatric symptoms of any kind following psilocybin exposure” value in data set [5] (healthy study subjects, estimated) was 0.08-0.09%. Further, the “drug-related serious adverse events (SAEs)” value in data set [5] (oral psilocybin) is on record as “No drug-related serious adverse events (SAEs) have been reported”.
